The target in assay [1] is RAC-alpha serine/threonine-protein kinase (Homo sapiens) (UniProt P31749). Description: Binding activity for protein kinase B (Akt) PH domain.
For assay [2] the target is unchanged. Description: Binding affinity for protein kinase B (Akt) PH domain.
Assay [3] has the same target. Description: Inhibition of protein kinase B (Akt) PH domain.
The target is the same in assay [4]. Description: Inhibition of binding to Protein kinase B (Akt) PH domain. The arrangement: scale not given: the % may be the effect or the level left.

Sequence of RAC-alpha serine/threonine-protein kinase (Homo sapiens) (P31749 whole entry, the tested form may be a part): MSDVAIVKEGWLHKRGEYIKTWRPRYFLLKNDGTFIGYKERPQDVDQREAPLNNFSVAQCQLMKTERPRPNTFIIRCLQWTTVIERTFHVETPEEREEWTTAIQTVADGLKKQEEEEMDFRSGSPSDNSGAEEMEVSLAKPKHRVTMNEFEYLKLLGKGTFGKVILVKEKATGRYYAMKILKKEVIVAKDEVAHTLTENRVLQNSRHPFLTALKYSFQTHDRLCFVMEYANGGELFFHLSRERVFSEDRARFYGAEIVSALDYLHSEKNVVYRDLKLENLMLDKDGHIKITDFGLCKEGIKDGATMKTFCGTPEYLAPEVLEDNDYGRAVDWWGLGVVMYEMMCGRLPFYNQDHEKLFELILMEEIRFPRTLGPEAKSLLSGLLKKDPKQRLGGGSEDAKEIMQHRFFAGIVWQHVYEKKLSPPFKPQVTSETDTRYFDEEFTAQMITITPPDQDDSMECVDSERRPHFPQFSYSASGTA

In the case of `CCCCCCCCCCCCCCCCCCCC(=O)OC(COC(=O)CCCCCCCCCCCCCCCCC)COP(=O)(O)OC1C(O)CC(OP(=O)(O)O)C(OP(=O)(O)O)C1O` (configuration not stated), the Activity in assay [1] came to 100%. The Ratio in assay [2] came to 0.57. `CCCCCCCCCCCCCCCCCCOC[C@H](COC(=O)O[C@@H]1[C@H](O)[C@@H](CO)[C@@H](O)[C@H](O)[C@@H]1O)OC` (stereo in doubt; 1): in assay [3], the Ratio came out at 5. In the case of `CCCCCCCCCCCCCCCCCCCC(=O)OC(COC(=O)CCCCCCCCCCCCCCCCC)COP(=O)(O)OC1C(O)C(OP(=O)(O)O)C(OP(=O)(O)O)C(OP(=O)(O)O)C1O` (configuration not stated), the Activity in assay [4] was -35%. Besides, in assay [2], the Ratio stood at 0.4. In the case of `CCCCCCCCCCCCCCCCCCCC(=O)OC(COC(=O)CCCCCCCCCCCCCCCCC)COP(=O)(O)OC1C(O)CCC(OP(=O)(O)O)C1O` (configuration not stated), in assay [1], the Activity is 13%.

Take `CCCCCCCCCCCCCCCCCCOC[C@H](COC(=O)O[C@@H]1[C@H](O)[C@@H](CO)[C@@H](O)[C@H](O)[C@@H]1O)OC` (stereo in doubt; 2): the Ratio in assay [3] worked out at 32.

Values taken from ChEMBL document CHEMBL1134371, “Molecular modeling studies of the Akt PH domain and its interaction with phosphoinositides” (J Med Chem, 2001).
